Consider 26 molecules from ChEMBL document CHEMBL3217603, “Synthesis and NMDA receptor affinity of dexoxadrol analogues with modifications in position 4 of the piperidine ring” (Medchemcomm, 2010).

Test [1] can be described thus: Displacement of [3H]-(+)-MK801 from pig brain phencyclidine binding site of NMDA receptor by scintillation counting. Further details: species or system Sus scrofa. Background: Displacement assays read how much labelled ligand stays bound in the presence of the test substance.
In test [2] the test system is Sigma-2 receptor (Rattus norvegicus). Put plainly: Displacement of [3H]-di-o-tolylguanidine from sigma-2 receptor in rat liver homogenate at 1 uM by liquid scintillation counting.
Test [3] addresses Sigma-2 receptor (Rattus norvegicus). Put plainly: Displacement of [3H]-di-o-tolylguanidine from sigma-2 receptor in rat liver homogenate by liquid scintillation counting.
The species named for a further test is Sus scrofa. Put plainly: Displacement of [3H]-(+)-MK801 from pig brain phencyclidine binding site of NMDA receptor at 1 uM by scintillation counting.

Molecules are shown by their SMILES.

For the molecule `O=C1CCN[C@H]([C@H]2COC(c3ccccc3)(c3ccccc3)O2)C1` (racemic), the Ki in test [1] came out at 470 nM.
As to `O[C@H]1CCN[C@H]([C@H]2COC(c3ccccc3)(c3ccccc3)O2)C1` (racemic), in test [2], the inhibition stood at 13%. Moreover, affinity in test [1] was put at a Ki of 44 nM.
Turning to `CN[C@H]1CCN[C@H]([C@@H]2COC(c3ccccc3)(c3ccccc3)O2)C1` (racemic), the inhibition constant Ki in test [3] worked out at 3670 nM. Besides, the inhibition in the test filed under Sus scrofa amounted to 16%.
`O[C@@H]1CCN[C@H]([C@H]2COC(c3ccccc3)(c3ccccc3)O2)C1` (racemic) came in with an inhibition in test [2] of 2%. The affinity in test [1] corresponds to a Ki of 527 nM.
The matching figures for `CO[C@H]1CCN[C@H]([C@H]2COC(c3ccccc3)(c3ccccc3)O2)C1` (racemic): 9% and 981 nM.
As to `O=C(OCc1ccccc1)N1CC[C@H](NCc2ccccc2)C[C@H]1[C@@H]1COC(c2ccccc2)(c2ccccc2)O1` (racemic), the inhibitory constant (Ki) in test [3] is given as 442 nM. The inhibition in the test filed under Sus scrofa was determined as 30%.
On to `CN[C@@H]1CCN(C(=O)OCc2ccccc2)[C@H]([C@@H]2COC(c3ccccc3)(c3ccccc3)O2)C1` (racemic), for which the inhibition is 28% in test [2] and 7% in the test listed under Sus scrofa.
For `CN[C@@H]1CCN(C(=O)OCc2ccccc2)[C@H]([C@H]2COC(c3ccccc3)(c3ccccc3)O2)C1` (racemic), the inhibition in test [2] was found to be 42%; in the test filed under Sus scrofa, 10%.
For the molecule `CN[C@@H]1CCN[C@H]([C@@H]2COC(c3ccccc3)(c3ccccc3)O2)C1` (racemic), the inhibition was found to be 44% in test [2] and 16% in the test listed under Sus scrofa.
The matching figures for `CN[C@@H]1CCN[C@H]([C@H]2COC(c3ccccc3)(c3ccccc3)O2)C1` (racemic): 12% and 40%.
The matching figures for `CN[C@H]1CCN(C(=O)OCc2ccccc2)[C@H]([C@@H]2COC(c3ccccc3)(c3ccccc3)O2)C1` (racemic): 18% and 7%.
As to `CN[C@H]1CCN(C(=O)OCc2ccccc2)[C@H]([C@H]2COC(c3ccccc3)(c3ccccc3)O2)C1` (racemic), the inhibition in test [2] stood at 35%; in the test filed under Sus scrofa, 6%.
The like results for `CN[C@H]1CCN[C@H]([C@H]2COC(c3ccccc3)(c3ccccc3)O2)C1` (racemic) were, in that order, 37% and 30%.
On to `CO[C@@H]1CCN[C@H]([C@@H]2COC(c3ccccc3)(c3ccccc3)O2)C1` (racemic), for which the inhibition was 18% in test [2] and 37% in the test listed under Sus scrofa.
The matching figures for `CO[C@@H]1CCN[C@H]([C@H]2COC(c3ccccc3)(c3ccccc3)O2)C1` (racemic): 5% and 49%.
The like results for `CO[C@H]1CCN[C@H]([C@@H]2COC(c3ccccc3)(c3ccccc3)O2)C1` (racemic) were, in that order, 23% and 21%.
The matching figures for `N[C@@H]1CCN[C@H]([C@@H]2COC(c3ccccc3)(c3ccccc3)O2)C1` (racemic): 15% and 26%.
`N[C@@H]1CCN[C@H]([C@H]2COC(c3ccccc3)(c3ccccc3)O2)C1` (racemic): the inhibition in test [2] worked out at 26%; in the test filed under Sus scrofa it was 44%.
Consider `N[C@H]1CCN[C@H]([C@@H]2COC(c3ccccc3)(c3ccccc3)O2)C1` (racemic), for which the results for the inhibition (in test [2]; in the test filed under Sus scrofa) were 13% and 25%, respectively.
The matching figures for `N[C@H]1CCN[C@H]([C@H]2COC(c3ccccc3)(c3ccccc3)O2)C1` (racemic): 17% and 17%.
`O=C(OCc1ccccc1)N1CC[C@@H](NCc2ccccc2)C[C@H]1[C@@H]1COC(c2ccccc2)(c2ccccc2)O1` (racemic): the inhibition in test [2] is 23%; in the test listed under Sus scrofa it was 8%.
As for `O=C(OCc1ccccc1)N1CC[C@@H](NCc2ccccc2)C[C@H]1[C@H]1COC(c2ccccc2)(c2ccccc2)O1` (racemic), the inhibition amounted to 14% in test [2] and 20% in the test filed under Sus scrofa.
In the case of `O=C(OCc1ccccc1)N1CC[C@H](NCc2ccccc2)C[C@H]1[C@H]1COC(c2ccccc2)(c2ccccc2)O1` (racemic), the inhibition was 8% in test [2] and 15% in the test filed under Sus scrofa.
Molecule `O=C1CCN[C@H]([C@@H]2COC(c3ccccc3)(c3ccccc3)O2)C1` (racemic) returned an inhibition in the test filed under Sus scrofa of 84%.
For `O[C@@H]1CCN[C@H]([C@@H]2COC(c3ccccc3)(c3ccccc3)O2)C1` (racemic), the inhibition (in test [2]; in the test listed under Sus scrofa) was 0% each time.
For `O[C@H]1CCN[C@H]([C@@H]2COC(c3ccccc3)(c3ccccc3)O2)C1` (racemic), the values for the inhibition (in test [2]; in the test filed under Sus scrofa) were 30% and 3%, respectively.

As a reminder, the Ki is the equilibrium dissociation constant of an inhibitor or competing ligand from its target. For orientation: inhibition means the share of the control response that was lost under treatment. Read a high inhibition as a response far below the control.
